Test results from PubChem BioAssay (NCI).
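Tested at 5 concentrations; 48 h exposure; 96-well plates; endpoints linearly interpolated, else capped at highest concentration. TGI marks complete inhibition of growth.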

Experiments:
Assay in all cases: NCI-60 cell line screen, 48 h
HCT-116 colon = tested on: HCT-116 colon
IGROV1 ovarian = tested on: IGROV1 ovarian
MALME-3M melanoma = tested on: MALME-3M melanoma
A498 renal = tested on: A498 renal
SF-295 CNS = tested on: SF-295 CNS
SN12C renal = tested on: SN12C renal
U251 CNS = tested on: U251 CNS
SW-620 colon = tested on: SW-620 colon
OVCAR-8 ovarian = tested on: OVCAR-8 ovarian
SK-MEL-2 melanoma = tested on: SK-MEL-2 melanoma
RPMI-8226 leukemia = tested on: RPMI-8226 leukemia
DMS 273 small cell lung = tested on: DMS 273 small cell lung
UACC-257 melanoma = tested on: UACC-257 melanoma
NCI-H460 lung = tested on: NCI-H460 lung
COLO 205 colon = tested on: COLO 205 colon
HCT-15 colon = tested on: HCT-15 colon
OVCAR-5 ovarian = tested on: OVCAR-5 ovarian
SR leukemia = tested on: SR leukemia
CCRF-CEM leukemia = tested on: CCRF-CEM leukemia
M14 melanoma = tested on: M14 melanoma
SF-268 CNS = tested on: SF-268 CNS
RXF 393 renal = tested on: RXF 393 renal
SK-OV-3 ovarian = tested on: SK-OV-3 ovarian
XF 498 CNS = tested on: XF 498 CNS
OVCAR-4 ovarian = tested on: OVCAR-4 ovarian
EKVX NSCLC = tested on: EKVX NSCLC
CAKI-1 renal = tested on: CAKI-1 renal
LOX IMVI melanoma = tested on: LOX IMVI melanoma
HOP-62 NSCLC = tested on: HOP-62 NSCLC
HL-60(TB) leukemia = tested on: HL-60(TB) leukemia
LXFL 529 NSCLC = tested on: LXFL 529 NSCLC
SK-MEL-28 melanoma = tested on: SK-MEL-28 melanoma
UO-31 renal = tested on: UO-31 renal
SNB-19 CNS = tested on: SNB-19 CNS
DMS 114 small cell lung = tested on: DMS 114 small cell lung
SNB-78 CNS = tested on: SNB-78 CNS
UACC-62 melanoma = tested on: UACC-62 melanoma
M19-MEL melanoma = tested on: M19-MEL melanoma
A549 NSCLC = tested on: A549 NSCLC
TK-10 renal = tested on: TK-10 renal
SF-539 CNS = tested on: SF-539 CNS
NCI-H522 lung = tested on: NCI-H522 lung
NCI-H23 lung = tested on: NCI-H23 lung
ACHN renal = tested on: ACHN renal
NCI-H226 lung = tested on: NCI-H226 lung
HT29 colon = tested on: HT29 colon
K-562 leukemia = tested on: K-562 leukemia
KM12 colon = tested on: KM12 colon
786-0 renal = tested on: 786-0 renal
MOLT-4 leukemia = tested on: MOLT-4 leukemia
OVCAR-3 ovarian = tested on: OVCAR-3 ovarian
KM20L2 colon = tested on: KM20L2 colon
HOP-92 NSCLC = tested on: HOP-92 NSCLC

## CC12C=C[C@]3(CC[C@@H]4[C@@](C)(CO)CCC[C@]4(C)C3CC1)C2 (stereo partly drawn)
HCT-116 colon
  TGI: 31.9 µM
IGROV1 ovarian
  TGI: 33 µM
MALME-3M melanoma
  TGI: 47.6 µM
A498 renal
  TGI: 37.7 µM
SF-295 CNS
  TGI: 34.1 µM
SN12C renal
  TGI: 34.4 µM
U251 CNS
  TGI: 30.9 µM
SW-620 colon
  TGI: 33.8 µM
OVCAR-8 ovarian
  TGI: 41.2 µM
SK-MEL-2 melanoma
  TGI: 43.2 µM
RPMI-8226 leukemia
  TGI: 41.6 µM
DMS 273 small cell lung
  TGI: 29.6 µM
UACC-257 melanoma
  TGI: 33.6 µM
NCI-H460 lung
  TGI: 40.1 µM
COLO 205 colon
  TGI: 30.6 µM
HCT-15 colon
  TGI: 31.1 µM
OVCAR-5 ovarian
  TGI: 10.6 µM
SR leukemia
  TGI: 37 µM
CCRF-CEM leukemia
  TGI: 46.9 µM
M14 melanoma
  TGI: 29.9 µM
SF-268 CNS
  TGI: 35.4 µM
RXF 393 renal
  TGI: 27.3 µM
SK-OV-3 ovarian
  TGI: 33.2 µM
XF 498 CNS
  TGI: 35.3 µM
OVCAR-4 ovarian
  TGI: 26.7 µM
EKVX NSCLC
  TGI: > 55.8 µM
CAKI-1 renal
  TGI: 26.2 µM
LOX IMVI melanoma
  TGI: 30.7 µM
HOP-62 NSCLC
  TGI: 19.9 µM
HL-60(TB) leukemia
  TGI: 36.8 µM
LXFL 529 NSCLC
  TGI: 30.8 µM
SK-MEL-28 melanoma
  TGI: 35.6 µM
UO-31 renal
  TGI: 32.2 µM
SNB-19 CNS
  TGI: 36.2 µM
DMS 114 small cell lung
  TGI: 31.7 µM
SNB-78 CNS
  TGI: 36.7 µM
UACC-62 melanoma
  TGI: 29.3 µM
M19-MEL melanoma
  TGI: 35.7 µM
A549 NSCLC
  TGI: 36.7 µM
TK-10 renal
  TGI: 34.7 µM
SF-539 CNS
  TGI: 30.5 µM
NCI-H522 lung
  TGI: 16.6 µM
NCI-H23 lung
  TGI: 33.4 µM
ACHN renal
  TGI: 32 µM
NCI-H226 lung
  TGI: 14.4 µM
HT29 colon
  TGI: 32.2 µM
K-562 leukemia
  TGI: 37.5 µM
KM12 colon
  TGI: > 64 µM
786-0 renal
  TGI: 30 µM
MOLT-4 leukemia
  TGI: > 60.4 µM
OVCAR-3 ovarian
  TGI: 33.2 µM
KM20L2 colon
  TGI: 1.68 µM
HOP-92 NSCLC
  TGI: > 65 µM
